We go through eight compounds from ChEMBL document CHEMBL5291721, “A preclinical secondary pharmacology resource illuminates target-adverse drug reaction associations of marketed drugs” (Nat Commun, 2023).

Some results are limits rather than exact numbers.

The target in test [1] is T1, Glucocorticoid receptor (Homo sapiens, UniProt P04150).
T1 sequence (P04150 whole entry): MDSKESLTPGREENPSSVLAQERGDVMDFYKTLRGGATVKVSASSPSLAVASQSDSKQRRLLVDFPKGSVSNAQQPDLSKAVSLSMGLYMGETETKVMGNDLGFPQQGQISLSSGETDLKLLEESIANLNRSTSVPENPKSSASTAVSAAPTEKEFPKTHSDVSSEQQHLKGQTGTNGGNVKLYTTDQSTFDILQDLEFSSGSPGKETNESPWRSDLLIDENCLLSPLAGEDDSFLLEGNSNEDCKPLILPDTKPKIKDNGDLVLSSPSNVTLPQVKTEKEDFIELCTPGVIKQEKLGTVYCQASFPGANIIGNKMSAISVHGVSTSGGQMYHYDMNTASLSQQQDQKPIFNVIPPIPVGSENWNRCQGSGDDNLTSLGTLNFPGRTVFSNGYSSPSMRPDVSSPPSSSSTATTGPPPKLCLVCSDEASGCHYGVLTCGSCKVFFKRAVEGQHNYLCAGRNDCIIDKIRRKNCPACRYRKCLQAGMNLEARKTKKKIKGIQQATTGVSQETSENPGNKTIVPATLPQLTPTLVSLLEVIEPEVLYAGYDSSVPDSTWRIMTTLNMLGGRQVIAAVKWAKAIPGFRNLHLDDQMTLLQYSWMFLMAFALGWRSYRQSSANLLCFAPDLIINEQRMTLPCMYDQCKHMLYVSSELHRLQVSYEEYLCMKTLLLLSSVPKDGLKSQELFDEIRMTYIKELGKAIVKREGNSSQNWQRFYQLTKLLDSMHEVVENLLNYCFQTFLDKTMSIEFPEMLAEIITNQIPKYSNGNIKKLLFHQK
Format: functional.

Test [2] addresses T2, Estrogen receptor (Homo sapiens, UniProt P03372).
T2 sequence (P03372 whole entry): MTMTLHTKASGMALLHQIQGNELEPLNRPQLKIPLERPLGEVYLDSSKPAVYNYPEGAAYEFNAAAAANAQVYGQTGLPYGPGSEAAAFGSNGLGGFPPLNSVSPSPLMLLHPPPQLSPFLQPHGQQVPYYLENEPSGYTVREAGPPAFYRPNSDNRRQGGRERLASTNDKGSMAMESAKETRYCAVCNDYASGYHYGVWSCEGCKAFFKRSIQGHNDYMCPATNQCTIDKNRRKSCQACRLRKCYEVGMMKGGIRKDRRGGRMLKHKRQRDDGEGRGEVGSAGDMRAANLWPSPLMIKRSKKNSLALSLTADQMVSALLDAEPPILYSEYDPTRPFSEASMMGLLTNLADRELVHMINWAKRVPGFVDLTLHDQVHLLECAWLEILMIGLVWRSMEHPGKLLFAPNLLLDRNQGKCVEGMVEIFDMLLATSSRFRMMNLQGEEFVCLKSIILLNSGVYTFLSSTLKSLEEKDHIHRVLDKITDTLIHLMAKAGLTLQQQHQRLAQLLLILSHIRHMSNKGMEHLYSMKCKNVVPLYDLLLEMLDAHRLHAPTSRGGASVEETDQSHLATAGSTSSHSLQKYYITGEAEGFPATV
The format is functional.

Test [3] deals with T1, Glucocorticoid receptor. The format is functional. This is another data set of the same source.
The target in test [4] is T2, Estrogen receptor. Format: functional. This is another data set of the same source.
Test [5] addresses T3, Substance-K receptor (Homo sapiens, UniProt P21452).
T3 sequence (P21452 whole entry): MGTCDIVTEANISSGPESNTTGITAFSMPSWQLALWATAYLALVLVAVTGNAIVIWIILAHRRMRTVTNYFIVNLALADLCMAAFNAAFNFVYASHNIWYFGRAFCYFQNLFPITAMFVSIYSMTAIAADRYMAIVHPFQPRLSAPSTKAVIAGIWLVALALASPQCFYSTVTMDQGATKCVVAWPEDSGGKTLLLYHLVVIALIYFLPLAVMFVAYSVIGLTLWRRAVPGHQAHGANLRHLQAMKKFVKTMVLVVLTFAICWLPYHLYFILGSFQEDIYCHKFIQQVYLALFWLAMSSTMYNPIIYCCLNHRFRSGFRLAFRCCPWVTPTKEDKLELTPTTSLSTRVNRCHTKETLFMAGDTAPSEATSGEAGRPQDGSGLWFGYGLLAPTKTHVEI

In test [6] the target is 5-hydroxytryptamine receptor 5A (Homo sapiens, UniProt P47898).
The target of test [7] is D(1B) dopamine receptor (Homo sapiens, UniProt P21918).
For test [8], the target named is T4, Muscarinic acetylcholine receptor M4 (Homo sapiens, UniProt P08173).
T4 sequence (P08173 whole entry): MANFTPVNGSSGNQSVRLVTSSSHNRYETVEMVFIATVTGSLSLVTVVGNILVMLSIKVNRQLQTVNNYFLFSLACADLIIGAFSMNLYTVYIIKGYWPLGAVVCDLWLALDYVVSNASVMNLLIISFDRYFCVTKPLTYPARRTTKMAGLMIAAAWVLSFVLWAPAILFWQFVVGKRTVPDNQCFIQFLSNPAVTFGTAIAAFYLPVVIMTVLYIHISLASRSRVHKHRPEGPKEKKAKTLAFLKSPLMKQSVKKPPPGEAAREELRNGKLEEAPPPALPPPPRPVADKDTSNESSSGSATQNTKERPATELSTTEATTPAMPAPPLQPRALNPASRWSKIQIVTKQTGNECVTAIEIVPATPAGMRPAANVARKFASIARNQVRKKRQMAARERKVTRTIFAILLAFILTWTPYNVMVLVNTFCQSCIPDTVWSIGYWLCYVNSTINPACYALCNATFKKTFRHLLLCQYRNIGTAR

The target in test [9] is Rod cGMP-specific 3',5'-cyclic phosphodiesterase subunit alpha (Homo sapiens, UniProt P16499). The format is functional.
The target of test [10] is Hydroxycarboxylic acid receptor 2 (Homo sapiens, UniProt Q8TDS4).
In test [11] the target is D(1A) dopamine receptor (Homo sapiens, UniProt P21728).
Also: assay procedure not described here.

Sequence of Hydroxycarboxylic acid receptor 2 (Q8TDS4 whole entry): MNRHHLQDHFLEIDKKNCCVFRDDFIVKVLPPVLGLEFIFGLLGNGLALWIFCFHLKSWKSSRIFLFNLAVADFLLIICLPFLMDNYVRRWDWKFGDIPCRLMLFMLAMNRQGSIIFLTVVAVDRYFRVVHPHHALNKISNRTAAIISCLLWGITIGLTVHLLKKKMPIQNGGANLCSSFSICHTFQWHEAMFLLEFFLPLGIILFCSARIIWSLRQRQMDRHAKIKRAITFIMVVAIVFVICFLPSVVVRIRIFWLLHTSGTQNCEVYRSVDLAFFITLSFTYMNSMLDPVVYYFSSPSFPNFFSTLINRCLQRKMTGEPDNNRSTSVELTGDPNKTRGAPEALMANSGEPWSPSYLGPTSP
Sequence of D(1B) dopamine receptor (P21918 whole entry): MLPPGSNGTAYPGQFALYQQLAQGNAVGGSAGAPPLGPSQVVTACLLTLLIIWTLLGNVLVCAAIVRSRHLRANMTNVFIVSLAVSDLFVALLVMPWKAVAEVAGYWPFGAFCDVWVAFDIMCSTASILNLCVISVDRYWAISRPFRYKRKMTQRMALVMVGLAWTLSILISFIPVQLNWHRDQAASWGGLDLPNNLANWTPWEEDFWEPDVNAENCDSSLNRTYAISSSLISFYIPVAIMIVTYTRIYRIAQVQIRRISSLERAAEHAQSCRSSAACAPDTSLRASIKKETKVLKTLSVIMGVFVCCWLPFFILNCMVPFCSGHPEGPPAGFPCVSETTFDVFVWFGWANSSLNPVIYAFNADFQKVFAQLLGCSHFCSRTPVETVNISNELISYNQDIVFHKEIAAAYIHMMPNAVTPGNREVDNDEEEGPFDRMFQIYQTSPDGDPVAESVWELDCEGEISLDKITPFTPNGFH
Sequence of 5-hydroxytryptamine receptor 5A (P47898 whole entry): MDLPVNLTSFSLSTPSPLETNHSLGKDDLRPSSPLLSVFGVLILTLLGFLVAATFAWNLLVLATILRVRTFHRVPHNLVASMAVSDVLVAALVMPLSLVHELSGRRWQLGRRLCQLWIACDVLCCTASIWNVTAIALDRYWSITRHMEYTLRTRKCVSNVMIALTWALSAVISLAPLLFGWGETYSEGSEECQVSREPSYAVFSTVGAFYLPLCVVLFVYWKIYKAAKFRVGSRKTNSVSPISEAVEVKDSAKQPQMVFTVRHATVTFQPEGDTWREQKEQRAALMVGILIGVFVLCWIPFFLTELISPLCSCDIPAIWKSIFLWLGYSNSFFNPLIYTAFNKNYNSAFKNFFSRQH
Sequence of Rod cGMP-specific 3',5'-cyclic phosphodiesterase subunit alpha (P16499 whole entry): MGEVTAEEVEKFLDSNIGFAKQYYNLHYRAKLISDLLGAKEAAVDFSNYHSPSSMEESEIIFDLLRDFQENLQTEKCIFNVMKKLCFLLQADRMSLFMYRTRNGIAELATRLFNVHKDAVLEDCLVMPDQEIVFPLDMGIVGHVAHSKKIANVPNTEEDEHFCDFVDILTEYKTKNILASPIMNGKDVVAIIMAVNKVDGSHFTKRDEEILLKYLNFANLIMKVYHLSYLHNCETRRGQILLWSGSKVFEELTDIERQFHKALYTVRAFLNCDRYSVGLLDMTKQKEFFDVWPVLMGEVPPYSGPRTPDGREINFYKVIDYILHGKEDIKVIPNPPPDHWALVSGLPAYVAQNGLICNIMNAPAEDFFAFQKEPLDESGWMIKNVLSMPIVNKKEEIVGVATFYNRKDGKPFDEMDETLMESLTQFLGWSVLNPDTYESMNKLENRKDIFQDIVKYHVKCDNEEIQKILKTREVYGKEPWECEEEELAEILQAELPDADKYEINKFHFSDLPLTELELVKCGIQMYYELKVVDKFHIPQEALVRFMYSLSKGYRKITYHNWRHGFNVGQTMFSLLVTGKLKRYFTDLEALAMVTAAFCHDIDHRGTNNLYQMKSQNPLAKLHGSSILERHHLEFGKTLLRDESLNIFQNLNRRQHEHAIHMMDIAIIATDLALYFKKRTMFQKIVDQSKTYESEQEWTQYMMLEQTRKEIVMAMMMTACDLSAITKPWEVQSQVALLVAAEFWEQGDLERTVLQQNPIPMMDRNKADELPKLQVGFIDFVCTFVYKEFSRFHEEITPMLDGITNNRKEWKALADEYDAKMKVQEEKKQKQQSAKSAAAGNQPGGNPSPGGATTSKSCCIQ
Sequence of D(1A) dopamine receptor (P21728 whole entry): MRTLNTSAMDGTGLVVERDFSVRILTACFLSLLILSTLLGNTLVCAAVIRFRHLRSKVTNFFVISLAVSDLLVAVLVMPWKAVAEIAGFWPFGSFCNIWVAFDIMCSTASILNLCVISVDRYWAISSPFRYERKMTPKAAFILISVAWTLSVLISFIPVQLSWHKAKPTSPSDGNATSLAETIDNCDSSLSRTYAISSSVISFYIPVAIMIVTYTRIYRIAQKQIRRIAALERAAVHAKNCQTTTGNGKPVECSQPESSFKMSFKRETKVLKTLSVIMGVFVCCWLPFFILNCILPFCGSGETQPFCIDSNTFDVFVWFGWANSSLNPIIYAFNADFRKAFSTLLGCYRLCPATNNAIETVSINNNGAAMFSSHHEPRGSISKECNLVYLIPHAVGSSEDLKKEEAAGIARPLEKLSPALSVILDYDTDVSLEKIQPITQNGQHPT

For the compound `CC(=O)O[C@H]1CC[C@@]2(C)C(=CC[C@@H]3[C@@H]2CC[C@]2(C)C(c4cccnc4)=CC[C@@H]32)C1` [ABIRATERONE ACETATE], the AC50 in [1], in test [2], in [3] and in test [4] was more than 30 µM throughout.
Turning to `CCCCc1ncc(/C=C(\Cc2cccs2)C(=O)O)n1Cc1ccc(C(=O)O)cc1` [EPROSARTAN], the AC50 in test [5], in [6], in test [7], in test [8] and in test [9] was more than 10 µM in each case.
As to `N#Cc1ccc([C@H]2CCc3cncn32)c(F)c1` [OSILODROSTAT], the half-maximal activity concentration (AC50) in test [5], in test [6], in test [7], in test [8] and in [9] was more than 10 µM in each case.
In turn, `CCCN(CCC)C(=O)C(CCC(=O)O)NC(=O)c1ccccc1` (configuration not stated) [PROGLUMIDE] had an AC50 in test [10] of more than 10 µM.
On the same count and under the same terms, with `CN1C(=O)C(O)N=C(c2ccccc2)c2cc(Cl)ccc21` (configuration not stated) [TEMAZEPAM] the figure was more than 10 µM.
In the case of `C/C(O)=C(\C#N)C(=O)Nc1ccc(C(F)(F)F)cc1` [TERIFLUNOMIDE], the concentration at half-maximal activity (AC50) in [1] was more than 10 µM; in test [2], more than 30 µM; in [3], more than 30 µM; in [4] it was more than 30 µM.
For the compound `CN1CCN(CC/C=C2/c3ccccc3Sc3ccc(S(=O)(=O)N(C)C)cc32)CC1` [THIOTHIXENE], the concentration at half-maximal activity (AC50) in test [11] worked out at 19 nM.
The compound `C=CCN1CCCC1CNC(=O)c1cc(S(N)(=O)=O)cc(OC)c1OC` (configuration not stated) [VERALIPRIDE] returned a half-maximal activity concentration (AC50) in [11] of 13 nM.
